# Molecular target: T1, Full-length, GST-tagged, human CaMKIIδ (Homo sapiens, UniProt Q13557)
# T1 construct: Full-Length, Glutathione-S-Transferase(GST)-Tagged, Human CaMKIIδ was purchased from Carna Biosciences; purchased Carna Biosciences 02-111
# Assay: CaMKIIδ binding assay (TR-FRET with BODIPY-labeled probe ligand)
# Details: CaMKIIδ binding assay, results of Table 2
# Method in brief: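 TR-FRET probe-displacement binding: 0.5 nM GST-CaMKIIδ with 10 μg/mL calmodulin, 1 mM CaCl2, 0.21 nM Tb-anti-GST Ab and 300 nM BODIPY probe in HEPES pH 7.6 buffer. Eight-point 4-fold dilutions, 1 hr at room temperature. IC50 from logistic fit; 100% inhibition defined by 3 μM parent compound.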
# T1 sequence (Q13557 1-478 isoform Q13557-12): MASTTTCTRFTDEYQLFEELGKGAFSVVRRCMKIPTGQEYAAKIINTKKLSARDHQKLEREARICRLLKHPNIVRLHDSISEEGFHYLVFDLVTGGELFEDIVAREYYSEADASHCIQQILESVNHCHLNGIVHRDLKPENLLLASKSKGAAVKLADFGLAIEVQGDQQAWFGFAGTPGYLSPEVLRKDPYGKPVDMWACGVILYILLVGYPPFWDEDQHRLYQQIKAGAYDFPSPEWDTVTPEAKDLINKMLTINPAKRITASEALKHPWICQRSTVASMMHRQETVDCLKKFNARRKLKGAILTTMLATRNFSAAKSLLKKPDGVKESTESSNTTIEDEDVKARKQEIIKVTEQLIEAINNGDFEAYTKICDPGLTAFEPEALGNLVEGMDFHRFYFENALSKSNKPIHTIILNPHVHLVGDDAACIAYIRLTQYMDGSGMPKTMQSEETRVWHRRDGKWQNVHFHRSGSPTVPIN
row,SMILES,IC50
1,"COc1cc2c(cc1Nc1ncc(-c3ccc(Cl)c(O[C@@H](C)Cn4cnnn4)c3)cn1)CCNC2 [Example 465, (S)-N-(5-(3-((1-(1H-tetrazol-1-yl)propan-2-yl)oxy)-4-chlorophenyl)pyrimidin-2-yl)-7-methoxy-1,2,3,4-tetrahydroisoquinolin-6-amine]",< 10 nM
2,"COc1cc2c(cc1Nc1ncc(-c3ccc(Cl)c(O[C@@H](C)Cn4cnnn4)c3)cn1)CN(C1COC1)CC2 [Example 463, (S)-N-(5-(3-((1-(1H-tetrazol-1-yl)propan-2-yl)oxy)-4-chlorophenyl)pyrimidin-2-yl)-6-methoxy-2-(oxetan-3-yl)-1,2,3,4-tetrahydroisoquinolin-7-amine]",< 10 nM
3,"C[C@@H](Cn1cnnn1)Oc1cc(-c2cnc(Nc3cn(CC4CCN(C5COC5)C4)nc3C(F)(F)F)nc2)ccc1Cl (stereo partly drawn) [Example 574, 5-(3-(((S)-1-(1H-tetrazol-1-yl)propan-2-yl)oxy)-4-chlorophenyl)-N-(1-((1-(oxetan-3-yl)pyrrolidin-3-yl)methyl)-3-(trifluoromethyl)-1H-pyrazol-4-yl)pyrimidin-2-amine]",< 10 nM
4,"COc1cc2c(cc1Nc1ncc(-c3ccc(Cl)c(O[C@@H](C)Cn4cnnn4)c3)cn1)CN(C(=O)C(C)(C)O)CC2 [Example 521, (S)-1-(7-((5-(3-((1-(1H-tetrazol-1-yl)propan-2-yl)oxy)-4-chlorophenyl)pyrimidin-2-yl)amino)-6-methoxy-3,4-dihydroisoquinolin-2(1H)-yl)-2-hydroxy-2-methylpropan-1-one]",10 to 100 nM
5,"Cc1cnc(N2CCC(N3CCOCC3)CC2)cc1Nc1ncc(-c2ccc(Cl)c(O[C@@H](C)Cn3cnnn3)c2)cn1 [Example 478, (S)-5-(3-((1-(1H-tetrazol-1-yl)propan-2-yl)oxy)-4-chlorophenyl)-N-(5-methyl-2-(4-morpholinopiperidin-1-yl)pyridin-4-yl)pyrimidin-2-amine]",10 to 100 nM
6,"C[C@@H](Cn1cnnn1)Oc1cc(-c2cnc(Nc3cn(C4CCN(CC#N)CC4)nc3C(F)(F)F)nc2)ccc1Cl [Example 536, (S)-2-(4-(4-((5-(3-((1-(1H-tetrazol-1-yl)propan-2-yl)oxy)-4-chlorophenyl)pyrimidin-2-yl)amino)-3-(trifluoromethyl)-1H-pyrazol-1-yl)piperidin-1-yl)acetonitrile]",10 to 100 nM
7,"COC1CCCCC1N1CCC(n2cc(Nc3ncc(-c4ccc(Cl)c(O[C@@H](C)Cn5cnnn5)c4)cn3)c(C(F)(F)F)n2)CC1 (stereo partly drawn) [Example 554, 5-(3-(((S)-1-(1H-tetrazol-1-yl)propan-2-yl)oxy)-4-chlorophenyl)-N-(1-(1-(2-methoxycyclohexyl)piperidin-4-yl)-3-(trifluoromethyl)-1H-pyrazol-4-yl)pyrimidin-2-amine]",< 10 nM
8,"C[C@@H](Cn1cnnn1)Oc1cc(-c2cnc(Nc3cn(C4CCN(Cc5cnn(C)c5)CC4)nc3C(F)(F)F)nc2)ccc1Cl [Example 567, (S)-5-(3-((1-(1H-tetrazol-1-yl)propan-2-yl)oxy)-4-chlorophenyl)-N-(1-(1-((1-methyl-1H-pyrazol-4-yl)methyl)piperidin-4-yl)-3-(trifluoromethyl)-1H-pyrazol-4-yl)pyrimidin-2-amine]",< 10 nM

# Same assay, conditions: CaMKIIδ binding assay; activity class per Table 2
row,SMILES,IC50
1,"CO[C@H]1CC[C@H](N2CC3(CC(n4cc(Nc5ncc(-c6ccc(Cl)c(O[C@@H](C)Cn7cnnn7)c6)cn5)c(C(C)C)n4)C3)C2)CC1 [Example 980, 5-(3-(((S)-1-(1H-tetrazol-1-yl)propan-2-yl)oxy)-4-chlorophenyl)-N-(3-isopropyl-1-(2-((1r,4r)-4-methoxycyclohexyl)-2-azaspiro[3.3]heptan-6-yl)-1H-pyrazol-4-yl)pyrimidin-2-amine]",< 10 nM
2,"C[C@@H](Cn1cnnn1)Oc1cc(-c2cnc(Nc3cn(Cc4cccc(=O)[nH]4)nc3OCC(F)(F)F)nc2)ccc1Cl [Example 929, (S)-6-((4-((5-(3-((1-(1H-tetrazol-1-yl)propan-2-yl)oxy)-4-chlorophenyl)pyrimidin-2-yl)amino)-3-(2,2,2-trifluoroethoxy)-1H-pyrazol-1-yl)methyl)pyridin-2(1H)-one]",< 10 nM
3,"C[C@@H](Cn1cnnn1)Oc1cc(-c2cnc(Nc3cn(C4CC5(C4)CN(c4ncccn4)C5)nc3OCC(F)(F)F)nc2)ccc1Cl [Example 952, (S)-5-(3-((1-(1H-tetrazol-1-yl)propan-2-yl)oxy)-4-chlorophenyl)-N-(1-(2-(pyrimidin-2-yl)-2-azaspiro[3.3]heptan-6-yl)-3-(2,2,2-trifluoroethoxy)-1H-pyrazol-4-yl)pyrimidin-2-amine]",< 10 nM
4,"C[C@@H](Cn1cnnn1)Oc1cc(-c2cnc(Nc3cn(Cc4ccc(=O)[nH]c4)nc3OCC(F)(F)F)nc2)ccc1Cl [Example 927, (S)-5-((4-((5-(3-((1-(1H-tetrazol-1-yl)propan-2-yl)oxy)-4-chlorophenyl)pyrimidin-2-yl)amino)-3-(2,2,2-trifluoroethoxy)-1H-pyrazol-1-yl)methyl)pyridin-2(1H)-one]",< 10 nM
5,"CCn1ncc(Nc2ncc(-c3ccc(Cl)c(O[C@@H](C)Cn4cnnn4)c3)cn2)c1C(=O)N1CCC(N2CCOCC2)CC1 [Example 880, (S)-(4-((5-(3-((1-(1H-tetrazol-1-yl)propan-2-yl)oxy)-4-chlorophenyl)pyrimidin-2-yl)amino)-1-ethyl-1H-pyrazol-5-yl) (4-morpholinopiperidin-1-yl)methanone]",≥ 100 nM

# Same assay, conditions: Table 2; CaMKIIδ binding assay, activity given as class A/B/C
row,SMILES,IC50
1,"C[C@@H](Cn1cccn1)Oc1cc(-c2cnc(Nc3cn([C@H]4CC[C@H](N5CCOCC5)CC4)nc3OCC(F)(F)F)nc2)ccc1C#N [Example 798, 2-(((S)-1-(1H-pyrazol-1-yl)propan-2-yl)oxy)-4-(2-((1-(trans-4-morpholinocyclohexyl)-3-(2,2,2-trifluoroethoxy)-1H-pyrazol-4-yl)amino)pyrimidin-5-yl)benzonitrile]",< 10 nM
2,"COCC(C)n1cc(Nc2ncc(-c3ccc(Cl)c(O[C@@H](C)Cn4cnnn4)c3)cn2)c(OCC(F)(F)F)n1 (stereo partly drawn) [Example 776, 5-(3-(((S)-1-(1H-tetrazol-1-yl)propan-2-yl)oxy)-4-chlorophenyl)-N-(1-(1-methoxypropan-2-yl)-3-(2,2,2-trifluoroethoxy)-1H-pyrazol-4-yl)pyrimidin-2-amine]",< 10 nM
3,"C[C@@H](Cn1cnnn1)Oc1cc(-c2cnc(Nc3cn([C@H]4CC[C@@H](N5CCOCC5)CC4)nc3C(F)(F)F)nc2)ccc1Cl [Example 781, 5-(3-(((S)-1-(1H-tetrazol-1-yl)propan-2-yl)oxy)-4-chlorophenyl)-N-(1-(cis-4-morpholinocyclohexyl)-3-(trifluoromethyl)-1H-pyrazol-4-yl)pyrimidin-2-amine]",< 10 nM
4,"C[C@@H](Cn1cnnn1)Oc1cc(-c2cnc(Nc3cn(C4CCN(C5CCOCC5)CC4)nc3C(F)F)nc2)ccc1Cl [Example 769, (S)-5-(3-((1-(1H-tetrazol-1-yl)propan-2-yl)oxy)-4-chlorophenyl)-N-(3-(difluoromethyl)-1-(1-(tetrahydro-2H-pyran-4-yl)piperidin-4-yl)-1H-pyrazol-4-yl)pyrimidin-2-amine]",< 10 nM

# Same assay, conditions: Table 2; activity class for CaMKIIδ
row,SMILES,IC50
1,"C[C@@H](Cn1cnnn1)Oc1cc(-c2cnc(Nc3cn(CC4CCCN4)nc3C(F)(F)F)nc2)ccc1Cl (stereo partly drawn) [Example 602, 5-(3-(((S)-1-(1H-tetrazol-1-yl)propan-2-yl)oxy)-4-chlorophenyl)-N-(1-(pyrrolidin-2-ylmethyl)-3-(trifluoromethyl)-1H-pyrazol-4-yl)pyrimidin-2-amine]",< 10 nM
2,"C[C@@H](Cn1cnnn1)Oc1cc(-c2cnc(Nc3cn(C4CN(C5COC5)C4)nc3C(F)(F)F)nc2)ccc1Cl [Example 699, (S)-5-(3-((1-(1H-tetrazol-1-yl)propan-2-yl)oxy)-4-chlorophenyl)-N-(1-(1-(oxetan-3-yl)azetidin-3-yl)-3-(trifluoromethyl)-1H-pyrazol-4-yl)pyrimidin-2-amine]",10 to 100 nM
3,"COc1ccc(C(=O)N2CCN(CC3CC3)CC2)cc1Nc1ncc(-c2ccc(Cl)c(O[C@@H](C)Cn3cnnn3)c2)cn1 [Example 681, (S)-(3-((5-(3-((1-(1H-tetrazol-1-yl)propan-2-yl)oxy)-4-chlorophenyl)pyrimidin-2-yl)amino)-4-methoxyphenyl) (4-(cyclopropylmethyl)piperazin-1-yl)methanone]",< 10 nM
4,"CCn1cc(Nc2ncc(-c3ccc(Cl)c(O[C@@H](C)Cn4cnnn4)c3)cn2)c(N2CCOCC2)n1 [Example 624, (S)-5-(3-((1-(1H-tetrazol-1-yl)propan-2-yl)oxy)-4-chlorophenyl)-N-(1-ethyl-3-morpholino-1H-pyrazol-4-yl)pyrimidin-2-amine]",≥ 100 nM
5,"COc1cc(N2CCN3CCOCC3C2)ccc1Nc1ncc(-c2ccc(Cl)c(O[C@@H](C)Cn3cnnn3)c2)cn1 (stereo partly drawn) [Example 673, 5-(3-(((S)-1-(1H-tetrazol-1-yl)propan-2-yl)oxy)-4-chlorophenyl)-N-(4-(hexahydropyrazino[2,1-c][1,4]oxazin-8(1H)-yl)-2-methoxyphenyl)pyrimidin-2-amine]",< 10 nM
6,"COc1cc(N2CCN(CC3COC3)CC2)ncc1Nc1ncc(-c2ccc(Cl)c(O[C@@H](C)Cn3cnnn3)c2)cn1 [Example 652, (S)-5-(3-((1-(1H-tetrazol-1-yl)propan-2-yl)oxy)-4-chlorophenyl)-N-(4-methoxy-6-(4-(oxetan-3-ylmethyl)piperazin-1-yl)pyridin-3-yl)pyrimidin-2-amine]",10 to 100 nM
7,"C[C@@H](Cn1cnnn1)Oc1cc(-c2cnc(Nc3cn(C4CCC(C(=O)O)CC4)nc3C(F)(F)F)nc2)ccc1Cl (stereo partly drawn) [Example 604, (S)-4-(4-((5-(3-((1-(1H-tetrazol-1-yl)propan-2-yl)oxy)-4-chlorophenyl)pyrimidin-2-yl)amino)-3-(trifluoromethyl)-1H-pyrazol-1-yl)cyclohexane-1-carboxylic acid]",10 to 100 nM

# From patent US10543212B2, “Substituted amines for treating cardiac diseases” (Cardurion Pharmaceuticals, LLC, priority 2017, dated 2020)
